According to patent US20200249573A1, “COMPOSITION FOR RESIST UNDERLAYER FILM FORMATION, UNDERLAYER FILM FOR LITHOGRAPHY, AND PATTERN FORMATION METHOD” (MITSUBISHI GAS CHEMICAL COMPANY, INC., priority 2016, published 2020):

Assay: Solubility of the compound in PGMEA (safe solvent)
Conditions: 23° C.; for solubility in PGMEA (amount of dissolution): ultrasonic waves 30 minutes, visual observation
Procedure: The solubility of the obtained compound in propylene glycol monomethyl ether acetate (PGMEA) was measured as the solubility of the compound in a safe solvent. The solubility was evaluated according to the following criteria utilizing the amount of dissolution in PGMEA. The amount of dissolution in PGMEA was measured at 23° C. by precisely weighing the compound into a test tube, adding PGMEA so as to attain a predetermined concentration, applying ultrasonic waves for 30 minutes in an ultrasonic cleaner, then visually observing the subsequent state of the fluid, and conducting evaluation on the basis of the concentration of the amount of complete dissolution.
A: 5.0% by mass<Amount of dissolution
B: 3.0% by mass<Amount of dissolution<5.0% by mass
C: Amount of dissolution<3.0% by mass

Structure (SMILES)	solubility in PGMEA, evaluation	solubility in PGMEA (amount of dissolution) [% by mass]
Oc1ccc([Te](Cl)(Cl)c2ccc(O)cc2)cc1 [BHPT, bis(4-hydroxyphenyl)tellurium dichloride]	A (5.0% by mass<Amount of dissolution)	≥ 5
Oc1ccc([Te]c2ccc(O)c(-c3ccccc3)c2)cc1-c1ccccc1 [Ph-TDP, bis(3-phenyl-4-hydroxyphenyl)tellurium]	A (5.0% by mass<Amount of dissolution)	≥ 5
CCOC(C)Oc1ccc([Te](Cl)(Cl)c2ccc(OC(C)OCC)c(-c3ccccc3)c2)cc1-c1ccccc1 (stereo not shown) [Ph-TDP-EE]	A (5.0% by mass<Amount of dissolution)	≥ 5
Oc1ccc([Te](Cl)(Cl)c2ccc(O)c(-c3ccccc3)c2)cc1-c1ccccc1 [Ph-BHPT, bis(3-phenyl-4-hydroxyphenyl)tellurium dichloride]	A (5.0% by mass<Amount of dissolution)	≥ 5
CC1(OC(=O)COc2ccc([Te](Cl)(Cl)c3ccc(OCC(=O)OC4(C)C5CC6CC(C5)CC4C6)cc3OCC(=O)OC3(C)C4CC5CC(C4)CC3C5)cc2)C2CC3CC(C2)CC1C3 (stereo not shown) [CCHT-ADBAC]	A (5.0% by mass<Amount of dissolution)	≥ 5
CC1(OC(=O)COc2ccc([Te]c3ccc(OCC(=O)OC4(C)C5CC6CC(C5)CC4C6)c(-c4ccccc4)c3)cc2-c2ccccc2)C2CC3CC(C2)CC1C3 (stereo not shown) [Ph-TDP-ADBAC]	A (5.0% by mass<Amount of dissolution)	≥ 5
CC1(OC(=O)COc2ccc([Te](Cl)(Cl)c3ccc(OCC(=O)OC4(C)C5CC6CC(C5)CC4C6)cc3)cc2)C2CC3CC(C2)CC1C3 (stereo not shown) [BHPT-ADBAC, bis(4-(2-methyl-2-adamantyloxycarbonylmethoxy)phenyl)tellurium dichloride]	A (5.0% by mass<Amount of dissolution)	≥ 5
CC1(OC(=O)COc2ccc([Te]c3ccc(OCC(=O)OC4(C)C5CC6CC(C5)CC4C6)cc3)cc2)C2CC3CC(C2)CC1C3 (stereo not shown) [TDP-ADBAC]	A (5.0% by mass<Amount of dissolution)	≥ 5
CC1(OC(=O)COc2ccc([Te](Cl)(Cl)c3ccc(OCC(=O)OC4(C)C5CC6CC(C5)CC4C6)c(-c4ccccc4)c3)cc2-c2ccccc2)C2CC3CC(C2)CC1C3 (stereo not shown) [Ph-BHPT-ADBAC]	A (5.0% by mass<Amount of dissolution)	≥ 5
CC(C)(C)OC(=O)Oc1ccc([Te](Cl)(Cl)c2ccc(OC(=O)OC(C)(C)C)cc2)cc1 [BHPT-BOC, bis(tert-butoxycarboxyphenyl)tellurium dichloride]	A (5.0% by mass<Amount of dissolution)	≥ 5
CCOC(C)Oc1ccc([Te](Cl)(Cl)c2ccc(OC(C)OCC)cc2)cc1 (stereo not shown) [BHPT-EE, bis(ethoxyethylphenyl)tellurium dichloride]	A (5.0% by mass<Amount of dissolution)	≥ 5
CC(C)(C)OC(=O)COc1ccc([Te]c2ccc(OCC(=O)OC(C)(C)C)c(-c3ccccc3)c2)cc1-c1ccccc1 [Ph-TDP-BOC]	A (5.0% by mass<Amount of dissolution)	≥ 5
Oc1ccc([Te](Cl)(Cl)c2ccc(O)cc2O)cc1 [CCHT, (2,4-dihydroxyphenyl) (4-hydroxyphenyl)tellurium dichloride]	A (5.0% by mass<Amount of dissolution)	≥ 5
Oc1ccc([Te]c2ccc(O)cc2)cc1 [TDP, 4,4′-telluriumdiphenol]	A (5.0% by mass<Amount of dissolution)	≥ 5
